Measured values: paper PMC6379498, “Radiosynthesis and in vivo evaluation of ^11C-labeled BMS-193885 and its desmethyl analog as PET tracers for neuropeptide Y1 receptors” (EJNMMI Radiopharmacy and Chemistry, 2019)

Key:
P-gp and BCRP = experiment: Effect of pretreatment with elacridar on tissue distribution of radioactivity; type: in vivo, mice; conditions: 30 min post-injection, elacridar 5 mg/kg 20-30 min before tracer, vs control
Description: The effects of pretreatment with 1 (BMS-193885) or the ABC transporter-inhibitor elacridar (inhibiting drug efflux transporters, mainly P-gp and BCRP) on tissue distributions of radioactivity were investigated. [^11C]1 (7.1–14 MBq/0.079–0.23 nmol) or [^11C]2 (6.0 MBq/0.16 nmol) was intravenously injected into mice (aged 7–8 weeks, weighing 32–36 g, n = 4–8) 20–30 min after the administration of the solution of 1 (10 mg/kg body weight [b.w.]/0.1 mL water containing 20% Tween 80), elacridar (5 mg/kg b.w./0.1 mL water), or a control fluid (0.1 mL water). Mice were euthanized by cervical dislocation at 30 min post-injection.
Blood samples were collected by heart puncture. Tissues were dissected and weighed. The radioactivity in samples was measured with an automatic gamma counter (Wizard 3′′ 1480, PerkinElmer, Waltham, MA, USA). The tissue uptake of radioactivity was expressed as the percentage of injected dose detected per gram of sample (%ID/g, tissue radioactivity/g tissue/injected radioactivity × 100).

[1] = Metabolite analysis of mouse plasma after co-injection of [^11C]1 with 1; type: in vivo, mice; conditions: 30 min after co-injection of [^11C]1 with 1 (50 mg/kg), radio- and UV-HPLC
Description: In addition, the effects of co-injection of [^11C]1 with 1 on the results of metabolite analyses of plasma were investigated. [^11C]1 (26-30 MBq/0.38-0.45 nmol) and a solution of 1 (50 mg/kg b.w. in water containing 20% Tween 80) were intravenously co-injected into mice (aged 7-9 weeks, weighing 35-39 g, n = 4). Mice were euthanized by cervical dislocation at 30 min post-injection. Blood samples taken by heart puncture were collected into heparinized syringes. The samples were centrifuged at 13,000×g (Model 5500, KUBOTA, Tokyo, Japan) for 3 min at 4 °C to obtain plasma (0.2 mL). Plasma samples were added to equivalent volumes of acetonitrile, and mixtures were centrifuged at 20,000×g for 2 min. The precipitate was added to 0.2 mL of acetonitrile, and this mixture was centrifuged at 20,000×g for 2 min to obtain the supernatant. The mixed supernatant was added to 0.2 mL of water, and this solution was loaded into the injector loop. HPLC analysis was performed using the abovementioned radio-HPLC system for metabolite analysis, and also a […] column (5 μm mesh, 10 mm i.d. × 150 mm length; YMC, Kyoto, Japan). Elution was performed using a mixture of 90% acetonitrile solution and 0.1 mol/L ammonium acetate solution (45:55, vol./vol.). The flow rate was 4 mL/min.

Row | Change of radioactivity level in brain by pretreatment with elacridar (P-gp and BCRP) | Change of radioactivity level in heart by pretreatment with elacridar (P-gp and BCRP) | Change of radioactivity level in kidney by pretreatment with elacridar (P-gp and BCRP) | Change of radioactivity level in liver by pretreatment with elacridar (P-gp and BCRP; liver) | Change of radioactivity level in blood by pretreatment with elacridar (P-gp and BCRP; blood) | Change of radioactivity level in lung by pretreatment with elacridar (P-gp and BCRP; lung) | Change of radioactivity level in muscle by pretreatment with elacridar (P-gp and BCRP; muscle) | SMILES | Metabolites found in mouse plasma [1]
1 | not increased | significantly increased | significantly decreased | significantly increased | – | – | – | COC(=O)C1=C(C)NC(C)=C(C(=O)OC)C1c1cccc(N[11C](=O)NCCCN2CCC(c3cccc(O)c3)CC2)c1 [[^11C]2] | –
2 | significantly increased | significantly increased | significantly decreased | – | significantly increased | significantly increased | significantly increased | COC(=O)C1=C(C)NC(C)=C(C(=O)OC)C1c1cccc(NC(=O)NCCCN2CCC(c3cccc(O[11CH3])c3)CC2)c1 [[^11C]1] | rapidly metabolized into its unlabeled desmethyl analog 2 and radiolabeled components
